Assay results: ChEMBL document CHEMBL3885861, “Open TG-GATES”

Organism: Rattus norvegicus
Test: Open TG-GATES - Regimen: Single
Type: toxicity, organism-based, Sprague-Dawley
Parameters: regimen Single, gender Male, age 6 weeks
Details: in vivo, po, 15 mg/kg, route gavage, dose level Low; for APTT / Bas / Eos / Fbg / Hb / Ht / Lym / MCH / MCHC / MCV / Mono / Neu / PT / Plat / RBC / Ret / WBC: tissue Blood; for KIDNEY_L / KIDNEY_R / KIDNEY_TOTAL: tissue Kidney; for LIVER: tissue Liver; for A/G / ALP / ALT / AST / BUN / CRE / Ca / Cl / DBIL / GLC / IP / K / LDH / Na / PL / RALB / TBIL / TC / TG / TP / gamma-GTP: tissue Plasma

CN(C)CCC=C1c2ccccc2CCc2ccccc21 [AMITRIPTYLINE]
TERMINAL_BW (3 h): 194.5 g
APTT (3 h): 16.2 s
Bas (3 h): 0%
Eos (3 h): 1%
Fbg (3 h): 267.4 mg/dL
Hb (3 h): 12.8 g/dL
Ht (3 h): 39.3%
Lym (3 h): 73%
MCH (3 h): 21.2 pg
MCHC (3 h): 32.6%
MCV (3 h): 65 fL
Mono (3 h): 3%
Neu (3 h): 22.2%
PT (3 h): 16.2 s
Plat (3 h): 114.1 x10_4/uL
RBC (3 h): 604.8 x10_4/ul
Ret (3 h): 8.7%
WBC (3 h): 91.4 x10_2/uL
KIDNEY_L (3 h): 0.8 g
KIDNEY_R (3 h): 0.8 g
KIDNEY_TOTAL (3 h): 1.6 g
LIVER (3 h): 8.5 g
A/G (3 h): 0.8
ALP (3 h): 1536.8 IU/L
ALT (3 h): 54.2 IU/L
AST (3 h): 74.4 IU/L
BUN (3 h): 10 mg/dL
CRE (3 h): 0.2 mg/dL
Ca (3 h): 11.1 mg/dL
Cl (3 h): 106.2 meq/L
DBIL (3 h): 0.01 mg/dL
GLC (3 h): 181.6 mg/dL
IP (3 h): 8.8 mg/dL
K (3 h): 4.3 meq/L
LDH (3 h): 83.8 IU/L
Na (3 h): 143 meq/L
PL (3 h): 142 mg/dL
RALB (3 h): 2.5 g/dL
TBIL (3 h): 0.058 mg/dL
TC (3 h): 80.2 mg/dL
TG (3 h): 52 mg/dL
TP (3 h): 5.4 g/dL
gamma-GTP (3 h): 1 IU/L
TERMINAL_BW (6 h): 191.5 g
APTT (6 h): 16 s
Bas (6 h): 0%
Eos (6 h): 1%
Fbg (6 h): 277.4 mg/dL
Hb (6 h): 13 g/dL
Ht (6 h): 39.9%
Lym (6 h): 77.4%
MCH (6 h): 21.1 pg
MCHC (6 h): 32.6%
MCV (6 h): 64.6 fL
Mono (6 h): 2.6%
Neu (6 h): 18.4%
PT (6 h): 15.9 s
Plat (6 h): 120 x10_4/uL
RBC (6 h): 617.8 x10_4/ul
Ret (6 h): 9.4%
WBC (6 h): 75 x10_2/uL
KIDNEY_L (6 h): 0.8 g
KIDNEY_R (6 h): 0.8 g
KIDNEY_TOTAL (6 h): 1.6 g
LIVER (6 h): 7.8 g
A/G (6 h): 0.8
ALP (6 h): 1444.2 IU/L
ALT (6 h): 46.4 IU/L
AST (6 h): 77.6 IU/L
BUN (6 h): 8.8 mg/dL
CRE (6 h): 0.2 mg/dL
Ca (6 h): 10.6 mg/dL
Cl (6 h): 106.6 meq/L
DBIL (6 h): 0.014 mg/dL
GLC (6 h): 175.8 mg/dL
IP (6 h): 9.2 mg/dL
K (6 h): 4.2 meq/L
LDH (6 h): 58.4 IU/L
Na (6 h): 143 meq/L
PL (6 h): 144.4 mg/dL
RALB (6 h): 2.4 g/dL
TBIL (6 h): 0.07 mg/dL
TC (6 h): 84.4 mg/dL
TG (6 h): 43.8 mg/dL
TP (6 h): 5.3 g/dL
gamma-GTP (6 h): 1 IU/L
TERMINAL_BW (9 h): 192 g
APTT (9 h): 16.6 s
Bas (9 h): 0%
Eos (9 h): 0.8%
Fbg (9 h): 262.6 mg/dL
Hb (9 h): 12.8 g/dL
Ht (9 h): 39.3%
Lym (9 h): 67.4%
MCH (9 h): 21.5 pg
MCHC (9 h): 32.6%
MCV (9 h): 65.8 fL
Mono (9 h): 2.4%
Neu (9 h): 29%
PT (9 h): 15.7 s
Plat (9 h): 117.7 x10_4/uL
RBC (9 h): 597 x10_4/ul
Ret (9 h): 9.3%
WBC (9 h): 87.8 x10_2/uL
KIDNEY_L (9 h): 0.9 g
KIDNEY_R (9 h): 0.9 g
KIDNEY_TOTAL (9 h): 1.7 g
LIVER (9 h): 7.4 g
A/G (9 h): 0.9
ALP (9 h): 1309.6 IU/L
ALT (9 h): 44.6 IU/L
AST (9 h): 71.2 IU/L
BUN (9 h): 8.4 mg/dL
CRE (9 h): 0.2 mg/dL
Ca (9 h): 10.7 mg/dL
Cl (9 h): 106.6 meq/L
DBIL (9 h): 0.006 mg/dL
GLC (9 h): 165.2 mg/dL
IP (9 h): 10.4 mg/dL
K (9 h): 3.9 meq/L
LDH (9 h): 69.2 IU/L
Na (9 h): 142.8 meq/L
PL (9 h): 140.4 mg/dL
RALB (9 h): 2.5 g/dL
TBIL (9 h): 0.062 mg/dL
TC (9 h): 78.6 mg/dL
TG (9 h): 33.2 mg/dL
TP (9 h): 5.4 g/dL
gamma-GTP (9 h): 1 IU/L
TERMINAL_BW (24 h): 206.4 g
APTT (24 h): 16 s
Bas (24 h): 0%
Eos (24 h): 1%
Fbg (24 h): 259.2 mg/dL
Hb (24 h): 12.8 g/dL
Ht (24 h): 38.8%
Lym (24 h): 77.8%
MCH (24 h): 21.6 pg
MCHC (24 h): 32.9%
MCV (24 h): 65.5 fL
Mono (24 h): 3%
Neu (24 h): 17.4%
PT (24 h): 16.4 s
Plat (24 h): 112.7 x10_4/uL
RBC (24 h): 592.4 x10_4/ul
Ret (24 h): 8.1%
WBC (24 h): 89.3 x10_2/uL
KIDNEY_L (24 h): 0.9 g
KIDNEY_R (24 h): 0.9 g
KIDNEY_TOTAL (24 h): 1.8 g
LIVER (24 h): 9.4 g
A/G (24 h): 0.8
ALP (24 h): 1812.6 IU/L
ALT (24 h): 52.4 IU/L
AST (24 h): 78.6 IU/L
BUN (24 h): 14 mg/dL
CRE (24 h): 0.2 mg/dL
Ca (24 h): 10.9 mg/dL
Cl (24 h): 107 meq/L
DBIL (24 h): 0.018 mg/dL
GLC (24 h): 179.2 mg/dL
IP (24 h): 7.3 mg/dL
K (24 h): 4.2 meq/L
LDH (24 h): 74.2 IU/L
Na (24 h): 143 meq/L
PL (24 h): 146.8 mg/dL
RALB (24 h): 2.6 g/dL
TBIL (24 h): 0.056 mg/dL
TC (24 h): 77.2 mg/dL
TG (24 h): 82.2 mg/dL
TP (24 h): 5.6 g/dL
gamma-GTP (24 h): 1 IU/L
